In the supplement of paper PMC13380429:

Experiments:
Conditions in all cases: 72 h
Calu-3 [1] = test: cell viability relative to DMSO; higher = less toxic
Caco-2 [2] = test: as above
Vero E6 [3] = test: as above
HepG2 [4] = test: as above
U2OS [5] = test: as above
Calu-3 [6] = test: drug sensitivity score (DSS) for viability; higher = more toxic; extreme values may be limits of the assay
Caco-2 [7] = test: as above
Vero E6 [8] = test: as above
HepG2 [9] = test: as above
U2OS [10] = test: as above
Calu-3 [11] = test: relative viability EC50 (midpoint between 100% and the lowest measured viability); higher = less toxic
Caco-2 [12] = test: as above
Vero E6 [13] = test: as above
HepG2 [14] = test: as above
U2OS [15] = test: as above

| Structure (SMILES) | cell viability (Calu-3 [1]; 1 nM) | cell viability (Calu-3 [1]; 10 nM) | cell viability (Calu-3 [1]; 100 nM) | cell viability (Calu-3 [1]; 1000 nM) | cell viability (Calu-3 [1]; 10000 nM) | cell viability (Caco-2 [2]; 1 nM) | cell viability (Caco-2 [2]; 10 nM) | cell viability (Caco-2 [2]; 100 nM) | cell viability (Caco-2 [2]; 1000 nM) | cell viability (Caco-2 [2]; 10000 nM) | cell viability (Vero E6 [3]; 1 nM) | cell viability (Vero E6 [3]; 10 nM) | cell viability (Vero E6 [3]; 100 nM) | cell viability (Vero E6 [3]; 1000 nM) | cell viability (Vero E6 [3]; 10000 nM) | cell viability (HepG2 [4]; 1 nM) | cell viability (HepG2 [4]; 10 nM) | cell viability (HepG2 [4]; 100 nM) | cell viability (HepG2 [4]; 1000 nM) | cell viability (HepG2 [4]; 10000 nM) | cell viability (U2OS [5]; 1 nM) | cell viability (U2OS [5]; 10 nM) | cell viability (U2OS [5]; 100 nM) | cell viability (U2OS [5]; 1000 nM) | cell viability (U2OS [5]; 10000 nM) | drug sensitivity score (Calu-3 [6]) | drug sensitivity score (Caco-2 [7]) | drug sensitivity score (Vero E6 [8]) | drug sensitivity score (HepG2 [9]) | drug sensitivity score (U2OS [10]) | relative viability EC50 (Calu-3 [11]) | relative viability EC50 (Caco-2 [12]) | relative viability EC50 (Vero E6 [13]) | relative viability EC50 (HepG2 [14]) | relative viability EC50 (U2OS [15]) |
| --- | --- | --- | --- | --- | --- | --- | --- | --- | --- | --- | --- | --- | --- | --- | --- | --- | --- | --- | --- | --- | --- | --- | --- | --- | --- | --- | --- | --- | --- | --- | --- | --- | --- | --- | --- |
| CCCNCCc1ccc(NS(=O)(=O)c2ccc(OC(F)(F)F)cc2)cc1 | 97.8% | 108% | 102% | 100% | 97.4% | 102% | 102% | 91.5% | 103% | 98.2% | 116% | 106% | 101% | 103% | 88.2% | 101% | 92.5% | 104% | 85.5% | 90% | 105% | 104% | 100% | 98.4% | 92.9% | 0 | 0 | 0 | 1.1 | 0 | > 10 µM | > 10 µM | > 10 µM | > 10 µM | > 10 µM |
| COc1cc(C[C@@H](CO[C@@H]2O[C@H](CO)[C@@H](O)[C@H](O)[C@H]2O)[C@H](CO[C@@H]2O[C@H](CO)[C@@H](O)[C@H](O)[C@H]2O)Cc2ccc(O)c(OC)c2)ccc1O [secoisolariciresinol-diglucoside] | 103% | 92.9% | 87.4% | 103% | 102% | 100% | 93.6% | 96.7% | 99.4% | 108% | 95.6% | 101% | 93.6% | 97.8% | 110% | 98.7% | 104% | 102% | 111% | 110% | 94% | 96.7% | 101% | 101% | 97.9% | 0 | 0 | 0 | 0 | 0 | > 10 µM | > 10 µM | > 10 µM | > 10 µM | > 10 µM |
| CCCN1CCC[C@@H]2Cc3nc(N)ncc3C[C@H]21 [quinelorane] | 102% | 99% | 93.2% | 103% | 105% | 101% | 92.9% | 98.6% | 85.7% | 104% | 102% | 99.6% | 101% | 93.2% | 99% | 95.9% | 94.1% | 97.6% | 91.8% | 96.4% | 103% | 105% | 102% | 97.1% | 98.5% | 0 | 0 | 0 | 0 | 0 | > 10 µM | > 10 µM | > 10 µM | > 10 µM | > 10 µM |
| CNC(=O)[C@@H](c1ccccc1)N1CCc2cc(OC)c(OC)cc2[C@@H]1CCc1ccc(C(F)(F)F)cc1 [almorexant] | 94.3% | 91.6% | 94.4% | 95.9% | 98.4% | 92.1% | 99.3% | 96.1% | 108% | 76% | 97.4% | 93% | 95.4% | 92.3% | 109% | 102% | 103% | 99.5% | 94.2% | 94.1% | 94.7% | 104% | 91.2% | 99.4% | 92.6% | 0 | 0.6 | 0 | 0 | 0 | > 10 µM | > 10 µM | > 10 µM | > 10 µM | > 10 µM |
| CC(SC(=O)c1cccs1)C(=O)NCC(=O)O (stereo unspecified) [stepronin] | 91.9% | 106% | 97.6% | 110% | 97.5% | 112% | 84.4% | 96.1% | 103% | 103% | 109% | 91.9% | 108% | 101% | 98.8% | 106% | 102% | 105% | 88.6% | 97% | 96.6% | 104% | 93.5% | 99% | 97.1% | 0 | 0 | 0 | 0.3 | 0 | > 10 µM | > 10 µM | > 10 µM | > 10 µM | > 10 µM |
| CN(C)CC/C=C1\c2ccccc2CSc2ccccc21 [dosulepin] | 90.7% | 104% | 101% | 89.3% | 87% | 94.1% | 108% | 100% | 117% | 107% | 93.4% | 97.3% | 104% | 96.5% | 92.7% | 111% | 93.5% | 94.1% | 92.6% | 79.9% | 90.7% | 97.5% | 96.4% | 101% | 96.6% | 0.6 | 0 | 0 | 0.9 | 0 | > 10 µM | > 10 µM | > 10 µM | > 10 µM | > 10 µM |
| Nc1ccc(/N=N/c2ccccc2)c(N)n1 [phenazopyridine] | 91.9% | 102% | 88.1% | 99.1% | 95.8% | 85.4% | 102% | 97% | 99.8% | 94% | 109% | 88.6% | 102% | 102% | 82.7% | 91.1% | 91.8% | 105% | 89.4% | 100% | 94% | 98.4% | 95.7% | 99.2% | 103% | 0 | 0 | 0.3 | 0 | 0 | > 10 µM | > 10 µM | > 10 µM | > 10 µM | > 10 µM |
| CCCCCNC(=N)N/N=C/c1c[nH]c2ccc(OC)cc12 [tegaserod] | 105% | 96.3% | 97.9% | 91.4% | 92.9% | 83.7% | 89.8% | 108% | 84.7% | 96.9% | 100% | 94.4% | 97.8% | 90.7% | 92.8% | 94.6% | 94% | 109% | 105% | 114% | 94.1% | 99.3% | 94.6% | 97.7% | 95.9% | 0 | 0 | 0 | 0 | 0 | > 10 µM | > 10 µM | > 10 µM | > 10 µM | > 10 µM |
| COc1cc2c(cc1OCCCN1CCCC1)N=C(N)C21CCC1 [A-366] | 97.3% | 106% | 102% | 103% | 95.4% | 91.2% | 95.4% | 97.5% | 104% | 92% | 101% | 98.1% | 93.6% | 94.4% | 97.8% | – | – | – | – | – | 103% | 102% | 98.9% | 105% | 95.2% | 0 | 0 | 0 | – | 0 | > 10 µM | > 10 µM | > 10 µM | – | > 10 µM |
| CCN1/C(=C/C(C)=O)Sc2ccc(OC)cc21 [TG-003] | 99.2% | 105% | 106% | 96.8% | 102% | 98.9% | 92.9% | 96.6% | 99.2% | 95.4% | 98.9% | 98.6% | 99.1% | 93.5% | 93.7% | 98% | 96.9% | 93% | 93.2% | 87.2% | 106% | 98.7% | 96.9% | 104% | 102% | 0 | 0 | 0 | 0.1 | 0 | > 10 µM | > 10 µM | > 10 µM | > 10 µM | > 10 µM |
| Cc1ncc(-c2ccnc(Nc3ccc(S(C)(=O)=O)cc3)n2)n1C(C)C [AZD5438] | 98.9% | 97.1% | 104% | 106% | 38.1% | 97.1% | 97.8% | 104% | 96.8% | 27.7% | 97.6% | 102% | 96.4% | 91.6% | 12.6% | 100% | 95% | 106% | 77.3% | 6.7% | 104% | 105% | 108% | 102% | 10.1% | 2.9 | 4.4 | 6.2 | 8.7 | 4.8 | 3.65 µM | 2.84 µM | 2.36 µM | 1.58 µM | 3.29 µM |
| COc1ccc(CN(C(=O)[C@@H](N)Cc2c(C)cc(C(N)=O)cc2C)[C@@H](C)c2ncc(-c3ccccc3)[nH]2)cc1C(=O)O [eluxadoline] | 96.6% | 105% | 95.1% | 118% | 101% | 94.1% | 98.2% | 97.6% | 98.5% | 113% | 104% | 101% | 94.5% | 98.2% | 103% | 99.6% | 95.4% | 97.1% | 99.9% | 105% | 91.5% | 98.3% | 96.1% | 100% | 98% | 0 | 0 | 0 | 0 | 0 | > 10 µM | > 10 µM | > 10 µM | > 10 µM | > 10 µM |
| C=C[C@H]1CN2CC[C@H]1CC2C(OC(=O)OCC)c1ccnc2ccc(OC)cc12 (stereo in doubt) [quinine-ethyl-carbonate] | 99.9% | 104% | 102% | 90.4% | 101% | 114% | 97.1% | 94.2% | 105% | 114% | 104% | 95.9% | 105% | 107% | 100% | 93.2% | 97.7% | 100% | 104% | 97.4% | 99.9% | 97.3% | 101% | 96.9% | 96.9% | 0 | 0 | 0 | 0 | 0 | > 10 µM | > 10 µM | > 10 µM | > 10 µM | > 10 µM |
| Cc1cnc(-c2cnc(NCCNc3ccc(C#N)cn3)nc2-c2ccc(Cl)cc2Cl)[nH]1 | 87.6% | 107% | 99.1% | 110% | 89.7% | 99.5% | 105% | 95.7% | 110% | 99.6% | 101% | 100% | 94.9% | 97.6% | 76.8% | 104% | 99.3% | 107% | 113% | 98.4% | – | – | – | – | – | 0 | 0 | 1.2 | 0 | – | > 10 µM | > 10 µM | > 10 µM | > 10 µM | – |
